Experimental data reported in patent publication US11517555B2, “Solid soluble ferric pyrophosphate formulations, kits, and methods using the same” (ROCKWELL MEDICAL, INC., priority 2015, dated 2022).
“And” between values parts separate entries of the source, which are not always exact repeats. Equal values may be shown once.

Tests used:
[1] = healthy volunteers, 2.5-10 mg iv over 4 hours, 15 and 20 mg iv over 12 hours
[2] = biological target: apotransferrin and monoferric transferrin (Homo sapiens, UniProt P02787)
[3] = aqueous solution
[4] = remark: listed apart in the source
Description: The angle of repose is related to resistance to movement between particles (interparticulate friction) and is the constant, three-dimensional angle relative to the horizontal base assumed by a cone-shaped pile of powder. In a typical assay, a symmetrical cone-shaped pile of powder is built by passing a solid particulate formulation through a funnel onto a vibration-free fixed base. The height of the funnel is maintained approximately 2 cm to 4 cm above the pile to minimize the effect of falling particles on the top of the pile. The angle of repose can then be determined by measuring the height and radius of the cone and calculating the angle of repose from the following equation: angle of repose=tan^−1(height/radius).

[5] = Cilas 1180LD laser diffraction, liquid dispersion in mineral oil, replicates 1-3, citrate

apotransferrin and monoferric transferrin, sequence (P02787 20-698): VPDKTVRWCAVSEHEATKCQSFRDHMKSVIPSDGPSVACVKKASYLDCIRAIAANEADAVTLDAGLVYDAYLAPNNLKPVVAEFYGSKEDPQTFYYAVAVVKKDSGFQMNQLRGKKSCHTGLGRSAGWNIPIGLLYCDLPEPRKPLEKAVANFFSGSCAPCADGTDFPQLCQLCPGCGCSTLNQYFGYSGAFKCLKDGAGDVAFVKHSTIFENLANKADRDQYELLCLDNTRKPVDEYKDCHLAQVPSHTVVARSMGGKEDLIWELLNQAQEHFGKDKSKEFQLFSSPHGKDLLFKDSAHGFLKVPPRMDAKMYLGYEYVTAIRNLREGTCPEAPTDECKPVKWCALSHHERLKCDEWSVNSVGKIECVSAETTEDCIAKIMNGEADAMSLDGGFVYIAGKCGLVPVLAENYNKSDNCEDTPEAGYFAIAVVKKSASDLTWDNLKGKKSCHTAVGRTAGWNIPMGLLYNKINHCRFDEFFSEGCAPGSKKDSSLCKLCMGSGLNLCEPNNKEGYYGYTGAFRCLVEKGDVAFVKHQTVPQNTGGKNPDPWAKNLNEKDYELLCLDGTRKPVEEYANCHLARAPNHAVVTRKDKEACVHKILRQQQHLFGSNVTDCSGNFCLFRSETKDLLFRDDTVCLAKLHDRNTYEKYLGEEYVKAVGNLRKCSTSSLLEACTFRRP

O=C([O-])CC(O)(CC(=O)[O-])C(=O)[O-].O=P(O)(O)OP(=O)(O)O.[Fe+3] [SFP, Ferric pyrophosphate citrate]
AUC of baseline-corrected serum iron [1]: increased in a dose proportional manner
Cmax of baseline-corrected serum iron [1]: increased in a dose proportional manner
Pharmacologic action [2]: Binds directly to apotransferrin and
D10 [5]: 3.57 μm and 3.63 μm and 3.68 μm
D50 [5]: 12.73 μm and 12.66 μm and 12.58 μm
D90 [5]: 41.08 μm and 40.18 μm and 39.23 μm
primary particle size (light microscopy, dry powder and mineral oil dispersions): > 5 μm
Fe(III)-ligand binding [3]: Covalent and stable in aqueous
Angle of Response, Average ([4]; average of 3 replicate measurements): 41.5 °
Angle of Response ([4]; single replicate measurements 1-3, citrate): 42.3 ° and 41.4 ° and 40.9 °
